Data: patent US20120245137A1 (Zalicus Pharmaceuticals Ltd., priority 2009, published 2012)
Where two headings read alike, the source gives them in different places.

What was measured:
Assay type in all cases: cell-based
[1] = target: T-type calcium channel (Homo sapiens, UniProt O95180); test: T-type channel blocking, FLIPR data (Table 6); conditions: for CAv3.2 IC50 Ratio closed/inact.: CAv3.2, ratio closed/inactivated IC50
Excerpt: (§1) Another method, high-throughput spectrophotometric assay, utilizes loading of the cell lines with a fluorescent dye sensitive to intracellular calcium concentration and subsequent examination of the effects of compounds on the ability of depolarization by potassium chloride or other means to alter intracellular calcium levels.

[2] = target: T-type calcium channel (Homo sapiens, UniProt O43497); test: T-type channel blocking, FLIPR data (Table 6); conditions: CAv3.1
Excerpt: as §1

[3] = target: CAv1.2 (Homo sapiens, UniProt Q13936); test: FLIPR data, CAv1.2 channel blocking (Table 6); conditions: for CAv1.2 IC50 Ratio closed/inact.: ratio closed/inactivated IC50
[4] = target: Human Cav 2.2 channels (Homo sapiens, UniProt Q00975); test: Fluorescent assay for CaV2.2 channels using potassium depolarization (VIPR/FLIPR); conditions: FLIPR data; for CAv2.2 IC50 Ratio closed/inact.: ratio closed/inactivated IC50
Summary of the method: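 Fluo-4 calcium fluorescence (480/535 nm) was recorded on VIPR or FLIPR after depolarization to 70 mM final potassium. Before this, cells were preincubated 30 min at 25 °C with compound in 4–30 mM potassium, so that state-dependent block could be assessed; the cells were HEK293 coexpressing Cav2.2, α2δ, β and Kir2.3.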

[5] = CAv3.2, closed state, read-out: CAv3.2 IC50 Closed
[6] = CAv3.2, inactivated state, read-out: CAv3.2 IC50 Inact.
[7] = closed state, read-out: CAv1.2 IC50 Closed
[8] = inactivated state, read-out: CAv1.2 IC50 Inact.
[9] = closed state, read-out: CAv2.2 IC50 Closed
[10] = inactivated state, read-out: CAv2.2 IC50 Inact.

Chain of Human Cav 2.2 channels (Q00975 whole entry): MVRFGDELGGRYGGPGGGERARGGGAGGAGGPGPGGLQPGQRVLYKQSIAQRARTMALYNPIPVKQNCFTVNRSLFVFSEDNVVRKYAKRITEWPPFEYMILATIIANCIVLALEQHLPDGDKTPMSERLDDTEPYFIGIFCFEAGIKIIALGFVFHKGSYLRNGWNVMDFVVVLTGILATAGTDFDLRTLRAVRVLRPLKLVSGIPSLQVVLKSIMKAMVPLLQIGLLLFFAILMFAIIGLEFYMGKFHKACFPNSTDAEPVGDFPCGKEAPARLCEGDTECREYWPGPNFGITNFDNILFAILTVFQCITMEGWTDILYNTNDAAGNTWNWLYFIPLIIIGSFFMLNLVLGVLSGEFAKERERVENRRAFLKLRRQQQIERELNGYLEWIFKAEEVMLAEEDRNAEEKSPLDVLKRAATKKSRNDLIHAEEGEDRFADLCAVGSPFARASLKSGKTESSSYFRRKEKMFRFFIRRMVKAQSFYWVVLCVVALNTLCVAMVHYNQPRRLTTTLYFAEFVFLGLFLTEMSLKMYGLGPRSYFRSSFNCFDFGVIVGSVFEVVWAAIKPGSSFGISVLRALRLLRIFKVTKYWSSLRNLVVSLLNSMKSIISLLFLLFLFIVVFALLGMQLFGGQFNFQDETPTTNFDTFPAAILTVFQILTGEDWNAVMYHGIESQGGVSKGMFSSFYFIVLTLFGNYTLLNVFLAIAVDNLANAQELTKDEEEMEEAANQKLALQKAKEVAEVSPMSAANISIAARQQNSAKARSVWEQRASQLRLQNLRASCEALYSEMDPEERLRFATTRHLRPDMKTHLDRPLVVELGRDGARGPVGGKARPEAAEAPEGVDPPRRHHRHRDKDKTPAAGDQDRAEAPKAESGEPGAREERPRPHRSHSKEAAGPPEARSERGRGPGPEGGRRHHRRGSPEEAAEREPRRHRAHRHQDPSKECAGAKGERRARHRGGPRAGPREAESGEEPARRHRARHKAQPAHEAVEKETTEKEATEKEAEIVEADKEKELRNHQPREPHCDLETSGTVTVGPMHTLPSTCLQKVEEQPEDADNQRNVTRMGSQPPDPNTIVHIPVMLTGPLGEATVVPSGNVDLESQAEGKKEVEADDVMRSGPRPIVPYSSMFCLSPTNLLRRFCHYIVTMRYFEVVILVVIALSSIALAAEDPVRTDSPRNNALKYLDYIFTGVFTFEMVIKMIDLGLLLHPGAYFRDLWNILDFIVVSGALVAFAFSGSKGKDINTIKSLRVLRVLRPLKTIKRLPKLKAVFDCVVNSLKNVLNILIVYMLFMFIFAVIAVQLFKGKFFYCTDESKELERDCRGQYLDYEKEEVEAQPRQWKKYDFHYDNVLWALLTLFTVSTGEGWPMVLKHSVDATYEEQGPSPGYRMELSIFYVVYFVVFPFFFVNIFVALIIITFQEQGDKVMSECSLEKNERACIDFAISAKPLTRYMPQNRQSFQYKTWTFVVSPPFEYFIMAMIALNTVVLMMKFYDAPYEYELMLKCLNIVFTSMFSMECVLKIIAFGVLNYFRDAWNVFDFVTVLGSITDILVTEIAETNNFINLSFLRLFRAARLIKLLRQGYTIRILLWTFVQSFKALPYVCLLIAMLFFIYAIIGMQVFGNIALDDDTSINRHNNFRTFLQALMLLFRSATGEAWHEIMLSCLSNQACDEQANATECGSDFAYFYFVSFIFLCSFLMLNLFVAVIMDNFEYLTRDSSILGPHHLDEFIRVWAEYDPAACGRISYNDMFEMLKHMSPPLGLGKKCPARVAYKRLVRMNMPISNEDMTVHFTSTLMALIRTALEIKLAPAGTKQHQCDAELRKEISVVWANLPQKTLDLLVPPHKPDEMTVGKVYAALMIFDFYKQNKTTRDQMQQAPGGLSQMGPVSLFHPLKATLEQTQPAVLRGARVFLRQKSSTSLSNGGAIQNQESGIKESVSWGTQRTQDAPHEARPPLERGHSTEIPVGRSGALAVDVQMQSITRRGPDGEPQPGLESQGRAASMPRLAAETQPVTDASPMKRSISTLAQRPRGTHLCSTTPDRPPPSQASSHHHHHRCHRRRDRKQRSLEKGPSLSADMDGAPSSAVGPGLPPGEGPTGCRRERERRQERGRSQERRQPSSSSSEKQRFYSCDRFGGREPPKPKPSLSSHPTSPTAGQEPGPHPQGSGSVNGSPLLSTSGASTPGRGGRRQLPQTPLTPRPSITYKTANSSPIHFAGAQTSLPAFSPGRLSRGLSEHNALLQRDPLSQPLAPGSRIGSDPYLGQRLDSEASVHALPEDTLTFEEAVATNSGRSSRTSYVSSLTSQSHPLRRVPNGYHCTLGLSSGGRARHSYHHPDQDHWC
Chain of Human Cav 2.2 channels (P54289 25-1103 partner): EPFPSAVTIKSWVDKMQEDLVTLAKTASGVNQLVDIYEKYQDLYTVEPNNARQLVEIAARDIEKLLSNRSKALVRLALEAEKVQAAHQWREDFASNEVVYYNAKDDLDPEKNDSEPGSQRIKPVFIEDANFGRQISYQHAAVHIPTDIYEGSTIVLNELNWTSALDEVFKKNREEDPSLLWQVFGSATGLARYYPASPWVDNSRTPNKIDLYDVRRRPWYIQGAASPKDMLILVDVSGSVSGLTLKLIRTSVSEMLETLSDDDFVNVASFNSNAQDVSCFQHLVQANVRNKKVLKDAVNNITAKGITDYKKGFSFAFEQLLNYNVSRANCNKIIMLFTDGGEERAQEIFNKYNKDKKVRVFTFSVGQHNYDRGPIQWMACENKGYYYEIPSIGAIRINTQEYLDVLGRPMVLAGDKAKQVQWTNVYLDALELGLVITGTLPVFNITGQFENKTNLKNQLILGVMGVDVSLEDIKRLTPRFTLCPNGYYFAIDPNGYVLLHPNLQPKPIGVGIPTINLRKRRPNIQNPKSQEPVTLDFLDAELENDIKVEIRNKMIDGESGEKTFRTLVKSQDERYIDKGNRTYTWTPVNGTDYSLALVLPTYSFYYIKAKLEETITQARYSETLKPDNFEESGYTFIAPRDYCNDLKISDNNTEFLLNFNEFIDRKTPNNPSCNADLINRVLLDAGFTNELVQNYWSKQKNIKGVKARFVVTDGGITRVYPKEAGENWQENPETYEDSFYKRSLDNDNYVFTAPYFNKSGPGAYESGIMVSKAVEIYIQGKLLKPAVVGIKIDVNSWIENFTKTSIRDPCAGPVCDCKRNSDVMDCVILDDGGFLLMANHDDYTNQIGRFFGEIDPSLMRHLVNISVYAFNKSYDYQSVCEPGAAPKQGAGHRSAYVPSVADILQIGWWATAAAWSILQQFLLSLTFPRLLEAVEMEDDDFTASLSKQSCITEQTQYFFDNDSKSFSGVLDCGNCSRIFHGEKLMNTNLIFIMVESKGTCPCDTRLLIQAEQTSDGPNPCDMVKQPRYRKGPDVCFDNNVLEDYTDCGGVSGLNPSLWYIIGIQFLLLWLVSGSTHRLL
Chain of Human Cav 2.2 channels (P54284 whole entry partner): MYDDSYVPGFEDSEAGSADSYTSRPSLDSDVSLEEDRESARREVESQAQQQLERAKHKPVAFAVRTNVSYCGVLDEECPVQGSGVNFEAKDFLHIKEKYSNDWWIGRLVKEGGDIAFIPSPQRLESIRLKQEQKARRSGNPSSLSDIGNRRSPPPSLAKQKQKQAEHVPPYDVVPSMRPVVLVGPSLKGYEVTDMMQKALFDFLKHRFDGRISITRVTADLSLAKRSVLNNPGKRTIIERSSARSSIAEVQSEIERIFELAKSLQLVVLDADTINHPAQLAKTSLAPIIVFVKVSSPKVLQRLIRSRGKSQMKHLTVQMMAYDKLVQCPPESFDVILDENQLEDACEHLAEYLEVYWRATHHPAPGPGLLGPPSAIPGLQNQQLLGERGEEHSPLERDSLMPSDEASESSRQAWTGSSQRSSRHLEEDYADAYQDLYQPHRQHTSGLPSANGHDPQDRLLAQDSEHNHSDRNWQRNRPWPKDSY

Row | SMILES | IC50 [1, 5] [µM] | IC50 [1, 6] [µM] | CAv3.2 IC50 Ratio closed/inact. [1] | IC50 [2] [µM] | IC50 [3, 7] [µM] | IC50 [3, 8] [µM] | CAv1.2 IC50 Ratio closed/inact. [3] | IC50 [4, 9] [µM] | IC50 [4, 10] [µM] | CAv2.2 IC50 Ratio closed/inact. [4]
1 | CC(C)([C@H]1C[C@@H](CNC(=O)c2ccc(Cl)c(OC(F)(F)F)c2)C1)S(=O)(=O)c1cccc(C(F)(F)F)c1 [Compound 688] | 0.45 | 0.17 | 2.6 | 0.25 | 4.59 | 0.45 | 10.2 | 3.4 | 0.22 | 15.5
2 | CC(C)([C@H]1C[C@@H](CNC(=O)c2ncc(C(F)(F)F)cc2S(C)(=O)=O)C1)S(=O)(=O)c1cccc(C(F)(F)F)c1 [Compound 690] | ≥ 10 | – | – | ≥ 10 | ≥ 10 | ≥ 10 | – | 10 | 0.45 | 22.2
3 | CC(C)([C@H]1C[C@@H](CNc2ccnc(C(F)(F)F)n2)C1)S(=O)(=O)c1cccc(C(F)(F)F)c1 [Compound 691] | 7.35 | – | – | 5.83 | 4.94 | 2.22 | 2.2 | 4.03 | 0.53 | 7.6
4 | CS(=O)(=O)c1cc(Cl)ccc1C(=O)NC[C@H]1C[C@H](S(=O)(=O)c2cccc(OC(F)(F)F)c2)C1 [Compound 692] | 7.92 | 2.48 | 3.2 | 9.81 | ≥ 10 | ≥ 10 | – | 7.75 | 0.78 | 9.9
5 | O=C(NC[C@H]1C[C@H](S(=O)(=O)c2cccc(OC(F)(F)F)c2)C1)c1ccc(Cl)cn1 [Compound 693] | 7.95 | 2.77 | 2.9 | ≥ 10 | ≥ 10 | 6.64 | 1.5 | 1.77 | 0.34 | 5.2
6 | O=C(NC[C@H]1C[C@H](S(=O)(=O)c2cccc(OC(F)(F)F)c2)C1)c1ccc(C(F)(F)F)cc1 [Compound 694] | 2.47 | 1 | 2.5 | 3.08 | 7.51 | 2.22 | 3.4 | 2.11 | 0.3 | 7
7 | O=C(NC[C@H]1C[C@H](S(=O)(=O)c2cccc(OC(F)(F)F)c2)C1)c1ccc(C(F)(F)F)nc1 [Compound 695] | 8.58 | 5.58 | 1.5 | 9.87 | ≥ 10 | ≥ 10 | – | 5.12 | 0.78 | 6.6
8 | O=C(NC[C@H]1C[C@H](S(=O)(=O)c2cccc(OC(F)(F)F)c2)C1)c1cnc(C(F)(F)F)nc1 [Compound 696] | 9.92 | 6.35 | 1.6 | ≥ 10 | ≥ 10 | 8.33 | 1.2 | 7.07 | 0.94 | 7.5
9 | O=C(NC[C@H]1C[C@H](S(=O)(=O)c2cccc(OC(F)(F)F)c2)C1)c1ccc(OCC(F)(F)F)nc1 [Compound 698] | 3.02 | – | 1.1 | 3.02 | 5.6 | 2.48 | 2.3 | 2.7 | – | 5.7
10 | O=C(NC[C@H]1C[C@H](S(=O)(=O)c2cc(F)cc(C(F)(F)F)c2)C1)c1ccc(Cl)cn1 [Compound 702] | 7.5 | 3.79 | 2 | ≥ 10 | 9.86 | 7.28 | 1.4 | 3.95 | 0.89 | 4.4
11 | O=C(NC[C@H]1C[C@H](S(=O)(=O)c2cc(F)cc(C(F)(F)F)c2)C1)c1ccc(C(F)(F)F)cc1 [Compound 703] | 4.14 | 1.39 | 3 | 1.86 | 8.18 | 4.83 | 1.7 | 6.49 | 0.83 | 7.8
12 | O=C(NC[C@H]1C[C@H](S(=O)(=O)c2cc(F)cc(C(F)(F)F)c2)C1)c1ccc(C(F)(F)F)nc1 [Compound 704] | ≥ 10 | 8.75 | 1.1 | ≥ 10 | – | ≥ 10 | – | 10 | 1.65 | 6.1
13 | O=C(NC[C@H]1C[C@H](S(=O)(=O)c2cc(F)cc(C(F)(F)F)c2)C1)c1cnc(C(F)(F)F)nc1 [Compound 705] | ≥ 10 | 10 | 1 | ≥ 10 | ≥ 10 | ≥ 10 | – | 10 | 2.47 | 4
14 | O=C(NC[C@H]1C[C@H](S(=O)(=O)c2cc(F)cc(C(F)(F)F)c2)C1)c1ccc(OCC(F)(F)F)nc1 [Compound 706] | 4.02 | 0.74 | 5.4 | 2.87 | 7.98 | 3.09 | 2.6 | 3.95 | 0.85 | 4.6
15 | O=C(NC[C@H]1C[C@H](S(=O)(=O)c2cc(F)cc(C(F)(F)F)c2)C1)c1ccnc(C(F)(F)F)n1 [Compound 710] | ≥ 10 | 10 | 1 | ≥ 10 | ≥ 10 | ≥ 10 | – | 5.01 | 1.49 | 3.4
16 | CC(C)S(=O)(=O)c1cc(C(F)(F)F)cnc1C(=O)N[C@H]1C[C@H](CC(C)(C)S(=O)(=O)c2cccc(C(F)(F)F)c2)C1 [Compound 716] | ≥ 10 | 6.84 | 1.5 | ≥ 10 | 7.76 | 6.54 | 1.2 | 6.04 | 0.22 | 27.5
17 | CC(C)(C[C@H]1C[C@H](NC(=O)c2ccc(Cl)cc2S(C)(=O)=O)C1)S(=O)(=O)c1cccc(C(F)(F)F)c1 [Compound 718] | 5.68 | 3.67 | 1.5 | ≥ 10 | ≥ 10 | ≥ 10 | – | 4.71 | 0.15 | 31.4
18 | CC(C)(C[C@H]1C[C@H](NC(=O)c2ccc(C(F)(F)F)cc2)C1)S(=O)(=O)c1cccc(C(F)(F)F)c1 [Compound 719] | 0.73 | 0.64 | 1.1 | 1.78 | 2.73 | 0.75 | 3.6 | 1.24 | 0.11 | 11.3
19 | CC(C)(C[C@H]1C[C@H](NC(=O)c2ccc(Cl)cn2)C1)S(=O)(=O)c1cccc(C(F)(F)F)c1 [Compound 720] | 3.95 | 2.05 | 1.9 | 4.5 | 7.01 | 2.45 | 2.9 | 0.83 | 0.16 | 5.2
20 | CC(C)(C[C@H]1C[C@H](NC(=O)c2cnc(C(F)(F)F)nc2)C1)S(=O)(=O)c1cccc(C(F)(F)F)c1 [Compound 721] | 8.44 | 4.32 | 2 | ≥ 10 | ≥ 10 | 4.57 | 2.2 | 4.86 | 0.51 | 9.5
21 | CC(C)(C[C@H]1C[C@H](NC(=O)c2ccc(C(F)(F)F)cn2)C1)S(=O)(=O)c1cccc(C(F)(F)F)c1 [Compound 722] | 3.68 | 2.66 | 1.4 | 2.76 | 8.04 | 2.56 | 3.1 | 1.21 | 0.23 | 5.3
22 | CC(C)(C[C@H]1C[C@H](NC(=O)c2ccc(C(F)(F)F)nc2)C1)S(=O)(=O)c1cccc(C(F)(F)F)c1 [Compound 723] | 6.22 | 5.1 | 1.2 | 7.86 | ≥ 10 | 4.89 | 2 | 3.14 | 0.49 | 6.4
23 | CC(C)(C[C@H]1C[C@H](NC(=O)c2ccc(OCC(F)(F)F)nc2)C1)S(=O)(=O)c1cccc(C(F)(F)F)c1 [Compound 724] | 2.24 | 0.83 | 2.7 | 1.41 | 5.23 | 1.21 | 4.3 | 0.98 | 0.09 | 10.9
